Assay results reported in the kinase profiling compilation of Christmann-Franck et al. (2016).

Columns and labels:
Assay in all cases: KINOMEscan competition binding
Settings in all cases: compound 10.0 µM
EIF2AK1 (human) = EIF2AK1 (human) (UniProt Q9BQI3)
DSTYK (human) = DSTYK (human) (UniProt Q6XUX3)
TNNI3K (human) = TNNI3K (human) (UniProt Q59H18)
CHEK1 (human) = CHEK1 (human) (UniProt O14757)
RET (human) = RET (human) (UniProt P07949)
TTK (human) = TTK (human) (UniProt P33981)
CAMK1D (human) = CAMK1D (human) (UniProt Q8IU85)
Chain of CAMK1D (human) (Q8IU85 whole entry, looked up): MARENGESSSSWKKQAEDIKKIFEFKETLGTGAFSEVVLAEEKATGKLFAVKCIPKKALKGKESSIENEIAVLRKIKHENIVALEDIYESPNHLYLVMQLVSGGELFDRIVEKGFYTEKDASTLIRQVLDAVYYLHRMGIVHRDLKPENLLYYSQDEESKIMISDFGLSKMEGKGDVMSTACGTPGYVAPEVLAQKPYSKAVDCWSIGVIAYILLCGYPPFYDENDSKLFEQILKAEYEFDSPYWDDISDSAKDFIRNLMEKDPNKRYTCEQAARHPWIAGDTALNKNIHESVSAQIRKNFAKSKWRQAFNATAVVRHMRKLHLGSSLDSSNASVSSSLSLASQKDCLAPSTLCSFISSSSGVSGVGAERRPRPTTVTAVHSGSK

PDGFRA (human) = PDGFRA (human) (UniProt P16234)
DYRK1B (human) = DYRK1B (human) (UniProt Q9Y463)
FGFR1 (human) = FGFR1 (human) (UniProt P11362)
PRKD1 (human) = PRKD1 (human) (UniProt Q15139)
Chain of PRKD1 (human) (Q15139 whole entry, looked up): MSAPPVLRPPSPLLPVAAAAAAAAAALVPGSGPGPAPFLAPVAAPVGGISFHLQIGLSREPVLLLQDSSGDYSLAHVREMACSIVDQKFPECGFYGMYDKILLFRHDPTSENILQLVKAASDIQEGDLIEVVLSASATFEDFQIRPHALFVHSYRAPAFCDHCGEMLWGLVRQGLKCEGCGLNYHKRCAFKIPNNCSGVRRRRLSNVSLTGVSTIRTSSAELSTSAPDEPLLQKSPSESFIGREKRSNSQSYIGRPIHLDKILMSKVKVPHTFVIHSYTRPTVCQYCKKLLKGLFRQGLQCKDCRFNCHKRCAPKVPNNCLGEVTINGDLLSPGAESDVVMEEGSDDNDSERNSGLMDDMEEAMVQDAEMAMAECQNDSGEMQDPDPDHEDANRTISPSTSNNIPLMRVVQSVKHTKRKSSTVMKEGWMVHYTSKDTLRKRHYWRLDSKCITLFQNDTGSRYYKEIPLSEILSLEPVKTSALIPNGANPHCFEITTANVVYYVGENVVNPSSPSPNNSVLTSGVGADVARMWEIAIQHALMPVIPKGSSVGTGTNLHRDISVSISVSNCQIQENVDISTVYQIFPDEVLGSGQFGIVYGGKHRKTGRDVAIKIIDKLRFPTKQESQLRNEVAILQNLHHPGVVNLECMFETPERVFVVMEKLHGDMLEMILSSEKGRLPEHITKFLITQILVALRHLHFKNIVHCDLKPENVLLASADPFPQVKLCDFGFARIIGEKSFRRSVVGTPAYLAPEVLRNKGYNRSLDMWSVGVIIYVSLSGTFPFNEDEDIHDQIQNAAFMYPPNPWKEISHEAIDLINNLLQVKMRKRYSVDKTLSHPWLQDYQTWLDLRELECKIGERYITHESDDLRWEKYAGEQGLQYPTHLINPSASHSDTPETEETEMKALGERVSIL

PIP5K1C (human) = PIP5K1C (human) (UniProt O60331)
EPHA6 (human) = EPHA6 (human) (UniProt Q9UF33)
STK38 (human) = STK38 (human) (UniProt Q15208)
Chain of STK38 (human) (Q15208 whole entry, looked up): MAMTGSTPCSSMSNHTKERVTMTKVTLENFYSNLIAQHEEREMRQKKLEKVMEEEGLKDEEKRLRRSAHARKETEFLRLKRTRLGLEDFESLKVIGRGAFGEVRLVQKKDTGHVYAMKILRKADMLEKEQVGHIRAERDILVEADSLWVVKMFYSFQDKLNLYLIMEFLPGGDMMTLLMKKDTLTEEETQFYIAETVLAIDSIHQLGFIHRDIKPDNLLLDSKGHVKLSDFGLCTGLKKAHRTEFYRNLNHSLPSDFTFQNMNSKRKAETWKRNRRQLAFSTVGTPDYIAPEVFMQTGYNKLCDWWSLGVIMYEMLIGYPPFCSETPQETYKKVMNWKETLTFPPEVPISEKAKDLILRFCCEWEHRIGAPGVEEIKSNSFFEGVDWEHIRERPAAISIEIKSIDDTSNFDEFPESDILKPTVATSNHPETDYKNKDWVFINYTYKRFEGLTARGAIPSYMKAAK

VRK2 (human) = VRK2 (human) (UniProt Q86Y07)
STK35 (human) = STK35 (human) (UniProt Q8TDR2)
Chain of STK35 (human) (Q8TDR2 whole entry, looked up): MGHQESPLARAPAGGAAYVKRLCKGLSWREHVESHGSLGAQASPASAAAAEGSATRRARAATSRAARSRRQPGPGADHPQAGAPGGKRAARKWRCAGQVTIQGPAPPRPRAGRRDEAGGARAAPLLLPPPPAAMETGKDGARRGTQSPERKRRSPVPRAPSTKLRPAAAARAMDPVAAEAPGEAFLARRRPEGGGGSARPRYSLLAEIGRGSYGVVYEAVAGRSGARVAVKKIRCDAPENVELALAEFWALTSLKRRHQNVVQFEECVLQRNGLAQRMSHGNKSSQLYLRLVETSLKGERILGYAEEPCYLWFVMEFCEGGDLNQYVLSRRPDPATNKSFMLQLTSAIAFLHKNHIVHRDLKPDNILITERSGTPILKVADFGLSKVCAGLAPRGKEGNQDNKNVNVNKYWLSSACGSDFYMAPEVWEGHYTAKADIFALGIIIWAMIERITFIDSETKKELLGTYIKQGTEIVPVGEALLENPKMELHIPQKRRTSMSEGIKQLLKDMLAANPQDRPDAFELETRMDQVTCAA

IRAK4 (human) = IRAK4 (human) (UniProt Q9NWZ3)
TLK1 (human) = TLK1 (human) (UniProt Q9UKI8)
PAK3 (human) = PAK3 (human) (UniProt O75914)
PTK6 (human) = PTK6 (human) (UniProt Q13882)
Chain of PTK6 (human) (Q13882 whole entry, looked up): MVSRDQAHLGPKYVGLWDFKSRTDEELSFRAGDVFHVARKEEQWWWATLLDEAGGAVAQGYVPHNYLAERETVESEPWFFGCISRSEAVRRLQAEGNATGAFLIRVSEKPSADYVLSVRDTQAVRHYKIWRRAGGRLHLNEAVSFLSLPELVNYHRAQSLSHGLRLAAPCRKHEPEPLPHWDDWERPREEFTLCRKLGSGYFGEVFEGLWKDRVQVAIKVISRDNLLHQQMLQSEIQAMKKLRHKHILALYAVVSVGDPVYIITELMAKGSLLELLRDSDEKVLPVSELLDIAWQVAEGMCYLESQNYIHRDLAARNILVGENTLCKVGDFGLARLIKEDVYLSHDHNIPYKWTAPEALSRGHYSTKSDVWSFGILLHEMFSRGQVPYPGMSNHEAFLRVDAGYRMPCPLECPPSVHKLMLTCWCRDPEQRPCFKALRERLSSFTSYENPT

EPHB1 (human) = EPHB1 (human) (UniProt P54762)
CDK17 (human) = CDK17 (human) (UniProt Q00537)
PIP4K2B (human) = PIP4K2B (human) (UniProt P78356)
Chain of PIP4K2B (human) (P78356 whole entry, looked up): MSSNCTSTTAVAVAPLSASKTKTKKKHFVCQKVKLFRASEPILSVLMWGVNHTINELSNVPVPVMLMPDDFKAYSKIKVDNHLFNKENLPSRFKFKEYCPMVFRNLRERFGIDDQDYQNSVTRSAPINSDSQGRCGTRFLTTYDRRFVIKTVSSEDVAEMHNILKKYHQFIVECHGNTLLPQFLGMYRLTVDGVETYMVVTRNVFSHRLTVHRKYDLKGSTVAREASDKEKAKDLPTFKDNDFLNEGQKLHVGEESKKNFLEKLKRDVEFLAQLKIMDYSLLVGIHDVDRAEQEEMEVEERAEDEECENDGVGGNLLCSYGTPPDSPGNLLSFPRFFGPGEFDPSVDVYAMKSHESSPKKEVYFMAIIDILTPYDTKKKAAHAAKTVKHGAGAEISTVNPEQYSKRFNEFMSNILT

INSR (human) = INSR (human) (UniProt P06213)
SLK (human) = SLK (human) (UniProt Q9H2G2)
SRC (human) = SRC (human) (UniProt P12931)
[1] = biological target: JAK2 JH1 catalytic (human) (UniProt O60674)
LATS2 (human) = LATS2 (human) (UniProt Q9NRM7)
STK32B (human) = STK32B (human) (UniProt Q9NY57)
CDK11B (human) = CDK11B (human) (UniProt P21127)
ITK (human) = ITK (human) (UniProt Q08881)
Chain of ITK (human) (Q08881 whole entry, looked up): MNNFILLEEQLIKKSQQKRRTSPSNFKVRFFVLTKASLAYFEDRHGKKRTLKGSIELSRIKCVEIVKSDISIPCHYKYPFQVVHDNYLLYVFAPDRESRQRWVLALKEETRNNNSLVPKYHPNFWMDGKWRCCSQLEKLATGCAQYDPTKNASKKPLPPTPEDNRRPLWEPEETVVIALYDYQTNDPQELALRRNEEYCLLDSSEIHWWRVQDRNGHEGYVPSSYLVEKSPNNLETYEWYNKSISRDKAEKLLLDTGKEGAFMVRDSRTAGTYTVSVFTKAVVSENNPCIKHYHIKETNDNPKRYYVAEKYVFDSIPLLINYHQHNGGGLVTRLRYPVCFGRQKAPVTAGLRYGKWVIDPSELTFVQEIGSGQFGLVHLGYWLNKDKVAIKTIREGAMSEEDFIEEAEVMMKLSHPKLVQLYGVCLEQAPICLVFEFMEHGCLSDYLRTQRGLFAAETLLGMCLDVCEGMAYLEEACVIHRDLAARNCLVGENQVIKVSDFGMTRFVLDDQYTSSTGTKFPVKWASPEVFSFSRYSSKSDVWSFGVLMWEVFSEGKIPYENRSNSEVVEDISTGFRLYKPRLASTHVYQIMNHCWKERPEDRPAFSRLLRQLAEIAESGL

ADCK4 (human) = ADCK4 (human) (UniProt Q96D53)
DAPK1 (human) = DAPK1 (human) (UniProt P53355)
SGK3 (human) = SGK3 (human) (UniProt Q96BR1)
SYK (human) = SYK (human) (UniProt P43405)
CDK14 (human) = CDK14 (human) (UniProt O94921)
MST4 (human) = MST4 (human) (UniProt Q9P289)
MAP4K5 (human) = MAP4K5 (human) (UniProt Q9Y4K4)
EPHB6 (human) = EPHB6 (human) (UniProt O15197)
TGFBR2 (human) = TGFBR2 (human) (UniProt P37173)
MAPK14 (human) = MAPK14 (human) (UniProt Q16539)

Chain of EIF2AK1 (human) (Q9BQI3 whole entry, looked up): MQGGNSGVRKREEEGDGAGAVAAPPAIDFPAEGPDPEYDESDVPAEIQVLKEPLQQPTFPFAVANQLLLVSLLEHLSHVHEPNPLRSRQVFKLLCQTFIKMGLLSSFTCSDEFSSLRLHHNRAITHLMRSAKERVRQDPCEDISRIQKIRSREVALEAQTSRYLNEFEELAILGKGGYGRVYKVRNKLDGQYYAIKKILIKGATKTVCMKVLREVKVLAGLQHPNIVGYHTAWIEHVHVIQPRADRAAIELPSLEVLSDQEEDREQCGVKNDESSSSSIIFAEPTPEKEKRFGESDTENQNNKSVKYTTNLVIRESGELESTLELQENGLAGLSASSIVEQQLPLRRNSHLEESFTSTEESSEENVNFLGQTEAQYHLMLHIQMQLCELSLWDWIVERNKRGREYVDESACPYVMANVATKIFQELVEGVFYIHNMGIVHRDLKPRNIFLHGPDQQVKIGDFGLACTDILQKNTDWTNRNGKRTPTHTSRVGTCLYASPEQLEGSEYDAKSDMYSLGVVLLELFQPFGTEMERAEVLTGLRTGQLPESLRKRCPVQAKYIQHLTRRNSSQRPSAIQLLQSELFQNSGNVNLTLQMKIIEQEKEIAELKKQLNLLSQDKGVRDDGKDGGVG
Chain of CHEK1 (human) (O14757 whole entry, looked up): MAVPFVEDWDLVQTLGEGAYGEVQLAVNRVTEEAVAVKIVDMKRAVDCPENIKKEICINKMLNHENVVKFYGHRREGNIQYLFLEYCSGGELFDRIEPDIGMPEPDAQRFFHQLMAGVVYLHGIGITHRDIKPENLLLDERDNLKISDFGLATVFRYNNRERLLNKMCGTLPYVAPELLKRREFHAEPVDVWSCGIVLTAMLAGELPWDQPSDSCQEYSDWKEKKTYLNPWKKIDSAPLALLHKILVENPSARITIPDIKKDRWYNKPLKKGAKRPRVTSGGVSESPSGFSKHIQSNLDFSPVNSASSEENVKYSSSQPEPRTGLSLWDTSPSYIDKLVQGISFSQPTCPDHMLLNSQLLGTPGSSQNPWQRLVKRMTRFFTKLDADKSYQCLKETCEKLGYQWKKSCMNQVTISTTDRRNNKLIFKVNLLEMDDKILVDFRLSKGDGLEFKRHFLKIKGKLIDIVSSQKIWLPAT

COc1cc(C(=O)N2CCC(N3CCN(C)CC3)CC2)ccc1Nc1ncc2c(n1)N(C)c1ccccc1C(=O)N2C
kinase still bound, per cent of control (EIF2AK1 (human)): 100%
kinase still bound, per cent of control (DSTYK (human)): 16%
kinase still bound, per cent of control (TNNI3K (human)): 100%
kinase still bound, per cent of control (CHEK1 (human)): 100%
kinase still bound, per cent of control (RET (human)): 100%
kinase still bound, per cent of control (TTK (human)): 28%
kinase still bound, per cent of control (CAMK1D (human)): 69%
kinase still bound, per cent of control (PDGFRA (human)): 100%
kinase still bound, per cent of control (DYRK1B (human)): 94%
kinase still bound, per cent of control (FGFR1 (human)): 86%
kinase still bound, per cent of control (PRKD1 (human)): 28%
kinase still bound, per cent of control (PIP5K1C (human)): 96%
kinase still bound, per cent of control (EPHA6 (human)): 89%
kinase still bound, per cent of control (STK38 (human)): 96%
kinase still bound, per cent of control (VRK2 (human)): 99%
kinase still bound, per cent of control (STK35 (human)): 100%
kinase still bound, per cent of control (IRAK4 (human)): 83%
kinase still bound, per cent of control (TLK1 (human)): 100%
kinase still bound, per cent of control (PAK3 (human)): 83%
kinase still bound, per cent of control (PTK6 (human)): 58%
kinase still bound, per cent of control (EPHB1 (human)): 98%
residual activity (CDK17 (human)): 83%
kinase still bound, per cent of control (PIP4K2B (human)): 100%
kinase still bound, per cent of control (INSR (human)): 84%
kinase still bound, per cent of control (SLK (human)): 100%
kinase still bound, per cent of control (SRC (human)): 100%
kinase still bound, per cent of control [1]: 70%
kinase still bound, per cent of control (LATS2 (human)): 95%
kinase still bound, per cent of control (STK32B (human)): 100%
residual activity (CDK11B (human)): 84%
kinase still bound, per cent of control (ITK (human)): 82%
kinase still bound, per cent of control (ADCK4 (human)): 94%
kinase still bound, per cent of control (DAPK1 (human)): 73%
kinase still bound, per cent of control (SGK3 (human)): 95%
kinase still bound, per cent of control (SYK (human)): 100%
residual activity (CDK14 (human)): 81%
kinase still bound, per cent of control (MST4 (human)): 95%
kinase still bound, per cent of control (MAP4K5 (human)): 100%
kinase still bound, per cent of control (EPHB6 (human)): 31%
kinase still bound, per cent of control (TGFBR2 (human)): 100%
kinase still bound, per cent of control (MAPK14 (human)): 87%
